Experimental data: article PMC12677653, “Inhibition of Tumor Lipogenesis and Growth by Peptide‐Based Targeting of SREBP Activation” (Advanced Science, 2025)

Legend:
[1] = set-up: species or system ICR male mice; conditions: mouse, in vivo, iv, 10 mg/kg
Experimental: Figure 2 LNPs with a 1:1 ratio of TAT to cRGD effectively accumulate in tumor tissues. a) Schematic illustration of LNP composition. b,c) Biodistribution analysis of differently sized LNPs in Huh7 tumor‐bearing BALB/c‐nude mice (n = 3). (b) In vivo fluorescence imaging at 8, 12, 24, and 48 h post‐intravenous injection (10 mg kg^−1). The arrows indicate the tumor site. (c) Ex vivo fluorescence imaging of tumors and major organs harvested 48 h post‐injection. d,e) Optimization of TAT/cRGD peptide coating ratios for tumor‐targeted LNPs (n = 3). (d) In vivo fluorescence imaging at 12, 24, and 48 h post‐injection. The arrows indicate the tumor site. (e) Ex vivo fluorescence imaging of tumors and organs at 48 h. f) Pharmacokinetic profile of LNP@Insig1/2 loop 1 peptide versus free peptide (Insig1/2 loop 1 peptide) following intravenous administration in ICR mice (n = 3, 10 mg kg^−1). Plasma concentration‐time curves were quantified, and pharmacokinetic parameters were calculated: AUC (0–t) (h·ng mL^−1) and AUC (0–∞) (h·ng mL^−1). Data are expressed as mean ± SD (n = 3). Statistical significance was determined by one‐way analysis of variance (ANOVA). * p < 0.05, ** p < 0.01, *** p < 0.001, **** p < 0.0001, ns, no significance. TEXT PRINTED IN THE PICTURE: (f) Peptide: Tlast (h): 0.500±0; T1/2 (h): 0.084±0.0143; AUC(0-t) (h*ng/mL): 326±71.8; AUC(0-∞)(h*ng/mL): 331±73.0; Cl(L/kg/min): 0.518±0.109 | (f) LNP@Insig1/2 loop1 peptide: Tlast (h): 5.00±1.155; T1/2 (h): 0.724±0.183; AUC(0-t) (h*ng/mL): 4928±1425; AUC(0-∞)(h*ng/mL): 4955±1422; Cl(L/kg/min): 0.0337±0.0191 DOUBTS OF THE COPYIST ABOUT THIS PICTURE: Peptide, T1/2 (h): 0.084±0.0143, small print, 8 or 6 and 3 or 5 not certain / Peptide, AUC(0-t): 326±71.8, small print, 6 or 8 not certain / Peptide, AUC(0-∞): 331±73.0, small print, 3 or 8 not certain / Peptide, Cl: 0.518±0.109, small print, 8 and 9 not certain / LNP@Insig1/2 loop1 peptide, T1/2 (h): 0.724±0.183, small print, 8 and 3 not certain / LNP@Insig1/2 loop1 peptide, AUC(0-t): 4928±1425, small print, 9, 8 and 5 not certain / LNP@Insig1/2 loop1 peptide, AUC(0-∞): 4955±1422, small print, 9 and 5 not certain / LNP@Insig1/2 loop1 peptide, Cl: 0.0337±0.0191, small print, 3 and 9 not certain
The pharmacokinetic assay of Insig1/2 loop 1 peptide and LNP@ Insig1/2 loop 1 peptide was performed in ICR male mice. The male mice were administered intravenously (iv) at a dose of 10 mg kg^−1. Then, blood samples were collected into tubes containing EDTA at 0.083, 0.25, 0.5, 1, 2, 4, 8, 24 h (iv) after dosing. After centrifugation at 6000 rpm for 10 min at 4 °C, the obtained plasma samples were stored at ‐20 °C. Subsequently, the plasma samples were analyzed by liquid (LC‐MS/MS) chromatography‐tandem mass spectrometry analysis.

[2] = tested on: lipid levels, Ki67, Insig1 pS207/Insig2 pS151; assay: Oil Red O and IHC of tumors from high-fat diet mice; type: in vivo, nude mice; conditions: orthotopic Huh7, high-fat diet, IHC; semaglutide 30 nmol/kg ip daily and/or LNP peptide 10 mg/kg iv
Experimental: Figure 5 The Insig1/2 loop 1 peptide in combination with semaglutide treatment induces an additive tumor inhibitor effect. a–c) Huh7 cells were orthotopically injected into the liver of nude mice (n = 7 per group). Treatment groups received intravenous injections of LNP@Insig1/2 loop 1 peptide (10 mg kg^−1, every other day), and/or intraperitoneal injection of Semaglutide (30 nmol kg^−1, daily). (a) Representative optical images of tumors, (b) tumor weights, data are expressed as mean ± SD, statistical significance was determined by one‐way analysis of variance (ANOVA), and (c) survival analysis was performed using Kaplan‐Meier curves. Statistical significance was determined by Log‐rank (Mantel‐Cox) test. d) Cryosections of mouse tumor tissues were prepared, and lipid accumulation was assessed by Oil Red O staining. […] Quantitative analysis of lipid droplet counts (Oil Red O‐positive particles) was performed. Data are expressed as mean ± SD (n = 3). Statistical significance was determined by one‐way analysis of variance (ANOVA). e) Immunohistochemical (IHC) analysis of mouse tumor specimens was performed using the Ki67 antibody. […] Data are expressed as mean ± SD (n = 3). Statistical significance was determined by one‐way analysis of variance (ANOVA). f) Immunohistochemical (IHC) analysis of mouse tumor specimens was performed using the Insig1 pS207/Insig2 pS151 antibody. […]

RKKRRQRRRLYPCIDSHLGEPHKFKRE [Insig1/2 loop 1 peptide]
AUC(0-t) [1]: 326 ± 71.8 ng·h/mL | AUC(0-∞) [1]: 331 ± 73.0 ng·h/mL | Cl [1]: 518 ± 109 mL/min/kg | Tlast [1]: 0.500 ± 0 h | high-fat diet-enhanced Insig1 S207 and Insig2 S151 phosphorylation in tumors [2]: reduced
